pEC50: −log10 of the molar value. In brackets after ≈: the same amount, converted by molar mass.
Legend:
[1] = biological target: human soluble guanylate cyclase alpha 1 and beta 1 subunits (sGC) (Homo sapiens (Human), UniProt Q02108+Q02153); assay: sGC cellular activator assay (cGMP, HTRF), in the presence and absence of 50% human serum; type: cell-based; conditions: CHO cells stably expressing human sGC alpha 1/beta 1, preincubated with 40 microM ODQ; cGMP by HTRF; Table 2 does not state whether with or without 50% human serum
How it was run: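 Heme-oxidized conditions: ODQ (40 microM, 1 h) pretreatment of CHO cells stably expressing human α1/β1 sGC, in buffer containing 0.1% BSA and IBMX.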

physchem = conditions: kinetic from dmso stock
Description: Solubility is measured by the following method.
100 uL, 10 mM DMSO stock solution of each compound is prepared in a 96 well plate format. The experiment is done in single determination at 3 pH values (2.2, 4.5 and 6.8). For each pH and one reference, 40 uL of each compound is needed.
McIlvaine pH 2.2: To 2.076 g citric acid monohydrate and 0.043 g Na2HPO4×2H2O add 100 ml deionized water
McIlvaine pH 4.5: To 1.166 g citric acid monohydrate and 1.585 g Na2HPO4×2H2O add 100 ml deionized water
McIlvaine pH 6.8: To 0.476 g citric acid monohydrate and 2.753 g Na2HPO4×2H2O add 100 ml deionized water
With a suitable liquid handling device (Multipette® or a liquid handler) 390 uL of each buffer solution and 10 uL of compound is added to each well of a 96 deep well plate. The plates are covered firmly and shaken for 24 h on an over head shaker (at 54 RPM) at room temperature. The DMSO content in the final buffer is 2.5% v/v.
After 24 h the plates are centrifuged to remove droplets on the lid before opening (for ˜5 min at 2500 RPM).
The filtration is done under vacuum with Millipore 96 well filter plate. Filtrate is collected in a deep well plate and transferred to a suitable plate for UPLC analysis.
The reference plate is prepared by adding 10 uL of compound to 390 uL of 50:50 acetonitrile/water in a 96 deep well plate and transferred to a suitable plate for UPLC analysis. Wells are checked visually for precipitation, any presence noted under comments in reported results.
The samples are measured with UPLC-UV using the chromatographic method described below.
Waters Empower®2 software is used for generating Sample Sets (according to the plate layout), Sample Set Methods and Instrument Methods.
One Sample Set comprises the methods for three 96 well plates (one reference plate and two sample plates, and includes one Sample Set Method and one Instrument Method).
Data Processing and Analysis
The UV chromatograms collected at 254 nm are integrated and processed.
It is assumed that the compound is completely dissolved in the reference solution (50:50 acetonitrile/water)

[2] = Human liver microsome (HLM) metabolic stability assay; type: in vitro ADME; conditions: human liver microsomes
How it was run: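 Compound at 1 uM incubated with human liver microsomes at 37° C. for 60 min after NADPH addition. Aliquots quenched in cold acetonitrile at 0, 5, 15, 30 and 60 min and analysed by LC/MS/MS. t1/2 from ln(% remaining) vs time slope; CLint, CLh and % Qh derived from it (n=1).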

[3] = pH 2.2, aqueous buffer, Solubility (pH 2.2)
[4] = pH 4.5, aqueous buffer, Solubility (pH 4.5)
[5] = pH 6.8, aqueous buffer, Solubility (pH 6.8)

Chain of human soluble guanylate cyclase alpha 1 and beta 1 subunits (sGC) (Q02108 whole entry partner): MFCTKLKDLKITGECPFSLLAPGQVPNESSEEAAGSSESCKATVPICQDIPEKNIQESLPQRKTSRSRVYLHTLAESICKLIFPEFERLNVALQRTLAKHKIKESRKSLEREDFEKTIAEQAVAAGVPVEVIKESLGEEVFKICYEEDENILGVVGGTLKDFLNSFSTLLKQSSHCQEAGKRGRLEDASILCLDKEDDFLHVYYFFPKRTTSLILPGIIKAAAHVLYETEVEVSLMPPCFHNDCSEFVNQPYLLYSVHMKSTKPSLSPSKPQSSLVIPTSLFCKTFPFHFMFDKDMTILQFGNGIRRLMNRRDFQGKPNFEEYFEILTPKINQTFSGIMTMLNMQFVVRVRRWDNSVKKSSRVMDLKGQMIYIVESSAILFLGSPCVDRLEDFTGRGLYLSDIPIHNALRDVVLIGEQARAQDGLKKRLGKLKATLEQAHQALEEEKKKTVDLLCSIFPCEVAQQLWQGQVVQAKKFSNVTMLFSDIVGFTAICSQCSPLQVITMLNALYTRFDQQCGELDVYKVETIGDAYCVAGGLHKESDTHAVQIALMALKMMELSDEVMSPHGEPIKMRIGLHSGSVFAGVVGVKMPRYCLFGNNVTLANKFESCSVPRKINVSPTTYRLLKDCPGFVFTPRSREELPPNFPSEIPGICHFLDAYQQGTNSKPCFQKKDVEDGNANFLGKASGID
Chain of human soluble guanylate cyclase alpha 1 and beta 1 subunits (sGC) (Q02153 whole entry): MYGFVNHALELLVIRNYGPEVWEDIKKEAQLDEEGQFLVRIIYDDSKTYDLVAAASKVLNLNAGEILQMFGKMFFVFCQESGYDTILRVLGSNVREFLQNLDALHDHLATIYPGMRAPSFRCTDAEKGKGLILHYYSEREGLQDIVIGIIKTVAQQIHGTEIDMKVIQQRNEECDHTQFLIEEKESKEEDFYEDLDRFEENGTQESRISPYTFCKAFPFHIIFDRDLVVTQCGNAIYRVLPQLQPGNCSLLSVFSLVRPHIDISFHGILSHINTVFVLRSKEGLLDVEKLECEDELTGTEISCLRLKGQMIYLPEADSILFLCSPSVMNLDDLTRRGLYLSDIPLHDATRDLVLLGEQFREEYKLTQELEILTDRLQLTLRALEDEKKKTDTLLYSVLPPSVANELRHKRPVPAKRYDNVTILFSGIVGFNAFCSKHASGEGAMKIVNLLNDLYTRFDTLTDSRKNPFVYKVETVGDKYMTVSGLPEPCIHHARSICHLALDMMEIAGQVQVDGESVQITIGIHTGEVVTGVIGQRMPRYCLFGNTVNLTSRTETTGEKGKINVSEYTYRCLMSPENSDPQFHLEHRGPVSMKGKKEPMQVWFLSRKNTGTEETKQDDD

SMILES	pEC50 [1]	solubility at 24 h (physchem; [3]) [µg/mL]	solubility at 24 h (physchem; [4]) [µg/mL]	solubility at 24 h (physchem; [5]) [µg/mL]	Metabolic stability (Qh %), % hepatic blood flow [2] [%]
Cc1ccc(OCc2ccc3c(c2)CCN(C2CCOCC2)C3=O)c(-c2csc(N3CC[C@@]4(C(=O)O)C[C@H]4C3)n2)c1 [Compound 192, (1R,6S)-3-(4-{5-Methyl-2-[1-oxo-2-(tetrahydro-pyran-4-yl)-1,2,3,4-tetrahydro-isoquinolin-6-ylmethoxy]-phenyl}-thiazol-2-yl)-3-aza-bicyclo[4.1.0]heptane-6-carboxylic acid]	7.54	48 (≈ 83.7 µM)	< 0.1	9.2 (≈ 16 µM)	<24
Cc1ccc(OCc2cnc3c(c2)CCN(C2CCOCC2)C3)c(-c2csc(N3CC[C@@]4(C(=O)O)C[C@H]4C3)n2)c1 [Compound 194]	7.20	140 (≈ 250 µM)	70 (≈ 125 µM)	57 (≈ 102 µM)	<24
CO[C@@H]1CN(c2cccc(-c3cccc(C)c3OCc3ccc4c(c3C)CCN(C3COC3)CC4)n2)CC[C@@H]1C(=O)O [Compound 196]	8.52	117 (≈ 205 µM)	114 (≈ 199 µM)	107 (≈ 187 µM)	24
CO[C@H]1CN(c2cccc(-c3cccc(C)c3OCc3ccc4c(c3C)CCN(C3CCOCC3)CC4)n2)CC[C@H]1C(=O)O [Compound 197]	8.05	110 (≈ 183 µM)	73 (≈ 122 µM)	53 (≈ 88.4 µM)	47
Cc1ccc(OCc2ccc3c(c2)CCCN(C2CCOCC2)C3)c(-c2csc(N3CC[C@@]4(C(=O)O)C[C@H]4C3)n2)c1 [Compound 199]	6.84	134 (≈ 234 µM)	51.6 (≈ 89.9 µM)	23.8 (≈ 41.5 µM)	46
COc1ccc(OCc2ccc3c(c2C)CCN(C2CCOCC2)C3)c(-c2csc(N3CC[C@@]4(C(=O)O)C[C@H]4C3)n2)c1 [Compound 200]	7.60	130 (≈ 221 µM)	43.6 (≈ 73.9 µM)	10.5 (≈ 17.8 µM)	<24
COc1ccc(OCc2ccc3c(c2C)CCN(C2COC2)C3)c(-c2csc(N3CC[C@@]4(C(=O)O)C[C@H]4C3)n2)c1 [Compound 201]	7.40	132 (≈ 235 µM)	10.1 (≈ 18 µM)	19.5 (≈ 34.7 µM)	<24
Cc1ccc(OCc2ccc3c(c2C)CCN(C2CCOCC2)C3=O)c(-c2cccc(N3CC[C@@]4(C(=O)O)C[C@H]4C3)n2)c1 [Compound 202]	8.05	84 (≈ 144 µM)	10 (≈ 17.2 µM)	0.1 (≈ 0.172 µM)	62
CO[C@H]1CN(c2nc(-c3cc(C)ccc3OCc3ccc4c(c3C)CCN(C3CCOCC3)C4=O)cs2)CC[C@H]1C(=O)O [Compound 203]	7.48	56.8 (≈ 93.8 µM)	0.1 (≈ 0.165 µM)	1.6 (≈ 2.64 µM)	<24
CO[C@H]1CN(c2cccc(-c3cc(C)ccc3OCc3ccc4c(c3C)CCN(C3CCOCC3)C4=O)n2)CC[C@H]1C(=O)O [Compound 205]	7.28	109 (≈ 182 µM)	42.6 (≈ 71 µM)	10.8 (≈ 18 µM)	<24
CO[C@H]1CN(c2nc(-c3cccc(Cl)c3OCc3ccc4c(c3C)CCN(C3CCOCC3)C4)cs2)CC[C@H]1C(=O)O [Compound 207]	8.10	143 (≈ 234 µM)	88.6 (≈ 145 µM)	76.8 (≈ 125 µM)	<24
CO[C@@H]1CN(c2nc(-c3cccc(Cl)c3OCc3ccc4c(c3C)CCN(C3CCOCC3)C4)cs2)CC[C@@H]1C(=O)O [Compound 208]	7.80	139 (≈ 228 µM)	88.9 (≈ 145 µM)	77.1 (≈ 126 µM)	<24
COc1cc(COc2c(C)cccc2-c2csc(N3CC[C@@H](C(=O)O)[C@@H](OC)C3)n2)cc2c1CN(C1COC1)CC2 [Compound 209]	7.85	128 (≈ 220 µM)	83.9 (≈ 145 µM)	88.7 (≈ 153 µM)	<24
COc1cc(COc2c(C)cccc2-c2csc(N3CC[C@@H](C(=O)O)[C@@H](OC)C3)n2)cc2c1CN([C@@H]1CCOC1)CC2 [Compound 210]	7.80	136 (≈ 230 µM)	88.2 (≈ 149 µM)	75 (≈ 126 µM)	<24
COc1cc(COc2c(C)cccc2-c2csc(N3CC[C@@H](C(=O)O)[C@@H](OC)C3)n2)cc2c1CN([C@H]1CCOC1)CC2 [Compound 211]	7.74	133 (≈ 224 µM)	83.4 (≈ 140 µM)	76.5 (≈ 129 µM)	<24
COC[C@H]1N(c2cccc(-c3cccc(F)c3OCc3ccc4c(c3C)CCN(C3CCOCC3)CC4)n2)C[C@@H]2C[C@@]21C(=O)O [Compound 212]	7.47	136 (≈ 221 µM)	96.6 (≈ 157 µM)	72.7 (≈ 118 µM)	<24
COC[C@H]1N(c2cccc(-c3cccc(F)c3OCc3cc(C)c4c(c3)CCN(C3CCOCC3)C4)n2)C[C@@H]2C[C@@]21C(=O)O [Compound 213]	6.87	144 (≈ 239 µM)	109 (≈ 181 µM)	81.3 (≈ 135 µM)	<24
Cc1cccc(-c2cccc(N3CC4OCC3C4C(=O)O)n2)c1OCc1ccc2c(c1C)CCN(C1CCOCC1)C2 (stereo not drawn) [Compound 214]	6.61	118 (≈ 207 µM)	108 (≈ 189 µM)	87.9 (≈ 154 µM)	<24
COC[C@H]1N(c2cccc(-c3cccc(C)c3OCc3cc(C)c4c(c3C)CCN(C3CCOCC3)C4)n2)C[C@@H]2C[C@@]21C(=O)O [Compound 215]	8.00	143 (≈ 233 µM)	135 (≈ 221 µM)	129 (≈ 211 µM)	<24
COC[C@H]1N(c2cccc(-c3cccc(C)c3OCc3cc(F)c4c(c3)CCN(C3CCOCC3)C4)n2)C[C@@H]2C[C@@]21C(=O)O [Compound 216]	7.85	144 (≈ 240 µM)	139 (≈ 231 µM)	134 (≈ 223 µM)	39
COC[C@H]1N(c2cccc(-c3cccc(C)c3OCc3cc(C#N)c4c(c3)CCN(C3CCOCC3)C4)n2)C[C@@H]2C[C@@]21C(=O)O [Compound 217]	7.40	167 (≈ 274 µM)	162 (≈ 266 µM)	158 (≈ 259 µM)	44
COC[C@H]1N(c2cccc(-c3cc(C)ccc3OCc3ccc4c(c3C)CCN(C3CCOCC3)C4)n2)C[C@@H]2C[C@@]21C(=O)O [Compound 218]	7.09	144 (≈ 241 µM)	139 (≈ 233 µM)	134 (≈ 224 µM)	<24
COC[C@H]1N(c2cccc(-c3cc(C)ccc3OCc3cc(C)c4c(c3)CCN(C3CCOCC3)C4)n2)C[C@@H]2C[C@@]21C(=O)O [Compound 219]	6.58	146 (≈ 245 µM)	142 (≈ 238 µM)	137 (≈ 229 µM)	<24
COC[C@H]1N(c2cccc(-c3cccc(C(F)(F)F)c3OCc3cc(C)c4c(c3)CCN(C3CCOCC3)C4)n2)C[C@@H]2C[C@@]21C(=O)O [Compound 220]	8.05	167 (≈ 256 µM)	136 (≈ 209 µM)	133 (≈ 203 µM)	34
COC[C@H]1N(c2cccc(-c3cccc(Cl)c3OCc3cc(C)c4c(c3)CCN(C3CCOCC3)C4)n2)C[C@@H]2C[C@@]21C(=O)O [Compound 221]	7.92	155 (≈ 251 µM)	144 (≈ 233 µM)	132 (≈ 213 µM)	<24
COC[C@H]1N(c2cccc(-c3cccc(C)c3OCc3cc(C)c4c(c3)CN(C3CCOCC3)C4)n2)C[C@@H]2C[C@@]21C(=O)O [Compound 222]	7.64	132 (≈ 227 µM)	130 (≈ 222 µM)	119 (≈ 203 µM)	<24
COC[C@H]1N(c2cccc(-c3cccc(C)c3OCc3ccc4c(c3C)CN(C3CCOCC3)C4)n2)C[C@@H]2C[C@@]21C(=O)O [Compound 223]	7.64	145 (≈ 248 µM)	140 (≈ 239 µM)	132 (≈ 226 µM)	<24
COC[C@H]1N(c2cccc(-c3cccc(C)c3OCc3ccc4c(c3)CN(C3CCOCC3)CC4)n2)C[C@@H]2C[C@@]21C(=O)O [Compound 224]	7.29	150 (≈ 257 µM)	145 (≈ 249 µM)	136 (≈ 233 µM)	31
COC[C@H]1N(c2cccc(-c3cccc(C)c3OCc3ccc4c(c3)[C@@H](C)CN(C3CCOCC3)CC4)n2)C[C@@H]2C[C@@]21C(=O)O [Compound 225]	8.30	136 (≈ 222 µM)	135 (≈ 220 µM)	129 (≈ 211 µM)	25
COC[C@H]1N(c2cccc(-c3cccc(C)c3OCc3ccc4c(c3)[C@H](C)CN(C3CCOCC3)CC4)n2)C[C@@H]2C[C@@]21C(=O)O [Compound 226]	8.22	145 (≈ 237 µM)	142 (≈ 231 µM)	134 (≈ 219 µM)	<24

From patent US9353090B2, “Heterocyclic carboxylic acids as activators of soluble guanylate cyclase” (Boehringer Ingelheim International GmbH, priority 2014, dated 2016)
